{
  "source": "patent US12402621B2",
  "about": "“Method for increasing longevity and/or bud opening of cut flowers” (LETAVIS AB, priority 2019, dated 2025)",
  "format_in_all_cases": "in vivo",
  "key": {"[1]": {"test_system": "roses of the type Belle Rose", "assay": "Effect of oxytocin on the survival of cut roses of the type Belle Rose (appearance scores after pretreatment in cold-storage room)", "settings": "oxytocin 1, 5 and 10 μM in the presence of Chrysal, in particular 10 μM; cold-storage room 3 days, then tap water at room temperature; FIGS. 5 and 6", "protocol": "The stalks of newly delivered roses of the type Belle Rose were cut (1 cm from the lowest part of the stem) and thereafter the roses were placed in buckets containing tap water or tap water with different doses of oxytocin (0, 1, 5 and 10 μM in the presence of Chrysal) and kept in a cold-storage room for 3 days. Eight to nine roses were included in each bucket.\nThereafter, the roses were moved to a home like setting with normal room temperature. The stalks of the roses were again cut and the rose bouquets were placed in vases filled with tap water.\n(§1) The appearance of the roses was assessed at 0, 2, 4, 7 10 and 13 days after being placed in the home like setting according to the criteria shown in Table 2 (see Example 1). The assessment criteria were: degree of bud opening (i.e. degree of flower turn-out), degree of drooping (i.e. how bent the stalk was, freshness of the petals, freshness of the sepals and freshness of the stem leaves. Each assessment criterion was given a score from 1-5 according to the description. An average score based on all the assessment criteria was also calculated."}, "[2]": {"test_system": "roses of the type Furiosa", "assay": "Effect of oxytocin on the florescence of cut roses of the type Furiosa (appearance scores after pretreatment in cold-storage room)", "protocol": "(§2) The stalks of newly delivered roses of the type Furiosa were cut (1 cm from the lowest part of the stem) and thereafter the roses were placed in buckets containing water with different doses of oxytocin (0, 0.1, 1 and 10 μM) and kept in a cold-storage room for 0.25, 1.3 and 19 days. Nine roses were included in each treatment group.\nThereafter, the roses were moved to a home like setting with normal room temperature. The stalks of the roses were again cut and the roses were placed in individual vases filled with tap water.\nas §1, with “The” for “The appearance of the roses was assessed at 0, 2, 4, 7 10 and 13 days after being placed in the home like setting according to the criteria shown in Table 2 (see Example 1). The”"}, "[3]": {"test_system": "roses of the type Upper class", "assay": "Effect of oxytocin on the survival of cut roses of the type Upper class (appearance scores after pretreatment in cold-storage room)", "settings": "oxytocin 1-10 μmolar in water, cold-storage room 18 days, then tap water at room temperature; assessed at 4, 9, 15 and 20 days; FIG. 2", "from_the_text": "as §2, with “Upper class” for “Furiosa”, “(For doses see Table” for “(0, 0.1,”, “1” for “1 and 10 μM)”, “18” for “0.25, 1.3 and 19”, “Four” for “Nine”\nThereafter, the roses were moved to a home-like setting with normal room temperature. The stalk of the roses was cut again and the roses were placed in individual vases filled with tap water.\nThe assessment criteria were: degree of bud opening (i.e. degree of flower turn-out), degree of drooping (i.e. how bent the stalk was, freshness of the petals, freshness of the sepals and freshness of stem leaves. Each assessment criterion was given a score from 1-5 according to the description. An average score based on all the assessment criteria was also calculated."}},
  "data": [
    {"substance": "oxytocin", "values": [
      {"measurement": "duration of time during which the roses kept fresh and attractive", "setting": "[1]", "result": "increased in response to oxytocin"},
      {"measurement": "level of florescence", "setting": "[1]", "result": "increased the level of florescence"},
      {"measurement": "duration of time during which the roses kept fresh and attractive (days with bud opening score above 1.5)", "setting": "[2]; in particular with 10 μM oxytocin, after being put in tap water in home-like setting, FIG. 4", "result": "increased in response to oxytocin"},
      {"measurement": "degree of bud opening", "setting": "[2]; oxytocin 0.1, 1 and 10 μM, in particular 10 μM, pretreatment in cold-storage room, then tap water at room temperature, FIG. 3", "result": "increased the degree of bud opening"},
      {"measurement": "effect on degree of bud opening by length of oxytocin treatment", "setting": "[2]; treatment with oxytocin for 3 days versus 6 hours in cold-storage room, FIG. 3", "result": "more pronounced after treatment with oxytocin for 3 days than for 6 hours"},
      {"measurement": "individual assessments (bud opening, drooping, freshness of petals, sepals, stem leaves)", "setting": "[3]", "result": "in a positive direction"}
    ]}
  ]
}
